The IC50 is the concentration needed to halve the response being measured. A higher IC50 goes with lower potency. For orientation: melting point means the temperature of the solid-liquid transition.

Data on 13 compounds can be found in patent publication US7345067B2, “Aniline derivatives, their manufacture and use as pharmaceutical agents” (Hoffmann-La Roche Inc., priority 2003, dated 2008).

Structures are written as SMILES.

One series has as its target T1, PPARγ (Mus musculus, UniProt P37238).
T1 construct: PPARγ (aa 174 to 476); made in house; host or cells: E. coli BL21 (pLysS)
T1 sequence (P37238 204-505): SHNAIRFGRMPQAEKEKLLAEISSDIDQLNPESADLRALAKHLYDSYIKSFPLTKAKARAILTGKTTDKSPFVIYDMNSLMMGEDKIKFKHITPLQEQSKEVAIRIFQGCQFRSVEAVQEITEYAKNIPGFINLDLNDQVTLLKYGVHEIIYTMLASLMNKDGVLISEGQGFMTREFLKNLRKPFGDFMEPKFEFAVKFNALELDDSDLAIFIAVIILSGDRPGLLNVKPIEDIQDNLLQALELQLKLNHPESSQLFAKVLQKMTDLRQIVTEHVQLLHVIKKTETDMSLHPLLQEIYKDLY
The series is described as follows: Radioligand binding assay (SPA), PPARγ receptor binding. To be noted: GST-PPARγ-LBD fusion protein. From the text:
(§1) Background information on the performed assays can be found in: Nichols J S et al. “Development of a scintillation proximity assay for peroxisome proliferator-activated receptor gamma ligand binding domain”, (1998) Anal. Biochem. 257: 112-119.
(§2) Full-length cDNA clones for humans PPARδ and PPARα and mouse PPARγ were obtained by RT-PCR from human adipose and mouse liver cRNA, respectively, cloned into plasmid vectors and verified by DNA sequencing. Bacterial and mammalian expression vectors were constructed to produce glutathione-s-transferase (GST) and Gal4 DNA binding domain proteins fused to the ligand binding domains (LBD) of PPARδ (aa 139 to 442), PPARγ (aa 174 to 476) and PPARα (aa 167 to 469). To accomplish this, the portions of the cloned sequences encoding the LBDs were amplified from the full-length clones by PCR and then subcloned into the plasmid vectors. Final clones were verified by DNA sequence analysis.
(§3) Induction, expression, and purification of GST-LBD fusion proteins were performed in E. coli strain BL21 (pLysS) cells by standard methods (Ref: Current Protocols in Molecular Biology, Wiley Press, edited by Ausubel et al.).
(§4) PPARγ receptor binding was assayed in TKE50 (50 mM Tris-HCl, pH 8, 50 mM KCl, 2 mM EDTA, 0.1 mg/ml fatty acid-free BSA and 10 mM DTT). For each 96 well reaction an 140 ng equivalent of GST-PPARγ-LBD fusion protein was bound to 10 μg SPA beads (PharmaciaAmersham) in a final volume of 50 ul by shaking. The resulting slurry was incubated for 1 h at RT and centrifuged for 2 min at 1300 g. The supernatant containing unbound protein was removed and the semidry pellet containing the receptor-coated beads was resolved in 50 ul of TKE. For radioligand binding e.g. 10000 dpm 2(S)-(2-benzoyl-phenylamino)-3-{4-[1,1-ditritio-2-(5-methyl-2-phenyl-oxazol-4-yl)-ethoxy]-phenyl}-propionic acid in 50 μl were added, the reaction incubated at RT for 1 h and scintillation proximity counting performed. All binding assays were performed in 96 well plates and the amount of bound ligand measured on a Packard TopCount using OptiPlates (Packard). Nonspecific binding was determined in the presence of 10^−4 M unlabelled compound. Dose response curves were done in triplicates within a range of concentration from 10^−10 M to 10^−4 M.

For another series, the target named is T2, PPARα (Homo sapiens, UniProt Q07869).
T2 construct: PPARα (aa 167 to 469); made in house; host or cells: E. coli BL21 (pLysS)
T2 sequence (Q07869 167-468 limits assumed): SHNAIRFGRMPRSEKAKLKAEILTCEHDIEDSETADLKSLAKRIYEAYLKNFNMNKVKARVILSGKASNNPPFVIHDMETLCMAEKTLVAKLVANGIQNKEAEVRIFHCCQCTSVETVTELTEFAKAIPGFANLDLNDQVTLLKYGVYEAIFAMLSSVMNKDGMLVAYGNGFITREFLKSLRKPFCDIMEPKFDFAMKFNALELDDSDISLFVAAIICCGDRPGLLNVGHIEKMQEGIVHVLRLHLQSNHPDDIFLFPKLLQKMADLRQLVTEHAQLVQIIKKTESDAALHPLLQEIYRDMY
The series is described as follows: Radioligand binding assay (SPA), PPARα receptor binding. The settings on record: GST-PPARα-LBD fusion protein.
From the text: as §1, §2, §3
as §4, with “PPARα receptor” for “PPARγ receptor”, “of GST-PPARα-LBD” for “of GST-PPARγ-LBD”, “50 μl” for “50 ul”, “dpm of 2(S)-(2-benzoyl-phenylamino)-3-{4-[1,1-d]tritio-2-(5-methyl-2-phenyl-oxazol-4-yl)-ethoxy]-phenyl}-propionic acid or 2,3-ditritio-2(S)-methoxy-3-{4-[2-(5-methyl-2-phenyl-oxazol-4-yl)-ethoxy]-benzo[b]thiophen-7-yl}-propionic” for “dpm 2(S)-(2-benzoyl-phenylamino)-3-{4-[1,1-ditritio-2-(5-methyl-2-phenyl-oxazol-4-yl)-ethoxy]-phenyl}-propionic”, “50 ul” for “50 μl”

A further series deals with T3, PPARδ (Homo sapiens, UniProt Q03181).
T3 construct: PPARδ (aa 139 to 442); made in house; host or cells: E. coli BL21 (pLysS)
T3 sequence (Q03181 139-441 limits assumed): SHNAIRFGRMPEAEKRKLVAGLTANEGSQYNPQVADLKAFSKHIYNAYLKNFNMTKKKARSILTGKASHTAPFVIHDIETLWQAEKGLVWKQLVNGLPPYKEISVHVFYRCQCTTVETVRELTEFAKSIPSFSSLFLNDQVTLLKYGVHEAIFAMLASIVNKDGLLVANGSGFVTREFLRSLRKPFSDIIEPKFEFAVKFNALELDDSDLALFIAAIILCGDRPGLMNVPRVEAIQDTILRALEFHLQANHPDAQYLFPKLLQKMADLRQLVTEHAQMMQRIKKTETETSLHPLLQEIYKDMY
The series is described as follows: Radioligand binding assay (SPA), PPARδ receptor binding. To be noted: GST-PPARδ-LBD fusion protein.
From the text: as §1, §2, §3
PPARδ receptor binding was assayed in HNM10 (50 mM Hepes, pH 7.4, 10 mM NaCl, 5 mM MgCl2, 0.15 mg/ml fatty acid-free BSA and 15 mM DTT). For each 96 well reaction a 500 ng equivalent of GST-PPARδ-LBD fusion protein and radioligand, e.g. 20000 dpm {2-methyl-4-[4-methyl-2-(4-trifluoromethyl-phenyl)-thiazol-5-yl-ditritiomethylsulfanyl]-phenoxy}-acetic acid, was bound to 10 μg SPA beads (PharmaciaAmersham) in a final volume of 50 μl by shaking. The resulting slurry was incubated for 1 h at RT and centrifuged for 2 min at 1300 g. The supernatant containing unbound protein was removed and the semidry pellet containing the receptor-coated beads was resuspended in 50 ul of HNM. Radioligand was added and the reaction incubated at RT for 1 h and scintillation proximity counting performed in the presence of test compounds was determined. All binding assays were performed in 96 well plates and the amount of bound ligand was measured on a Packard TopCount using OptiPlates (Packard). Dose response curves were done in triplicates within a range of concentration from 10^−10 M to 10^−4 M.

With `Cc1cc(N(C)Cc2sc(-c3ccc(C(F)(F)F)cc3)nc2C)ccc1OCC(=O)O` [Example 1.6, (2-Methyl-4-{methyl-[4-methyl-2-(4-trifluoromethyl-phenyl)-thiazol-5-ylmethyl]-amino}-phenoxy)-acetic acid], the melting point is 146 to 149 °C (dec.). Besides, at PPARγ, the IC50 is above 10 µM. At PPARα, the IC50 amounted to 1.75 µM. The compound also registered an IC50 on PPARδ of 0.0177 µM.
On to `Cc1nc(-c2ccc(C(F)(F)F)cc2)sc1CN(C)c1ccc(OCC(=O)O)c(Cl)c1` [Example 4.6, (2-Chloro-4-{methyl-[4-methyl-2-(4-trifluoromethyl-phenyl)-thiazol-5-ylmethyl]-amino}-phenoxy)-acetic acid], for which the melting point is 149 to 150 °C (dec.). On PPARγ, this compound displayed an IC50 above 10 µM. This compound displayed an IC50 on PPARα of 0.412 µM. Also, the IC50 on PPARδ came to 0.021 µM.
In turn, `Cc1nc(-c2ccc(C(F)(F)F)cc2)sc1CN(C)c1ccc(OCC(=O)O)c(F)c1` [Example 5.7, (2-Fluoro-4-{methyl-[4-methyl-2-(4-trifluoromethyl-phenyl)-thiazol-5-ylmethyl]-amino}-phenoxy)-acetic acid] yielded a melting point of 113 to 114 °C. For the same compound, on PPARγ, the IC50 was above 10 µM. On PPARα, this compound returned an IC50 of 1.06 µM. Further, the IC50 on PPARδ was 0.0498 µM.
Regarding `Cc1nc(-c2ccc(C(F)(F)F)cc2)sc1CN(C)c1ccc(OCC(=O)O)c(C(F)(F)F)c1` [Example 6.8, (4-{Methyl-[4-methyl-2-(4-trifluoromethyl-phenyl)-thiazol-5-ylmethyl]-amino}-2-trifluoromethyl-phenoxy)-acetic acid], the melting point fell in the range of 180 to 181 °C. On PPARγ, this compound gave an IC50 above 10 µM. On PPARα, the IC50 stood at 0.463 µM. Moreover, at PPARδ, the IC50 stood at 0.0162 µM.
For the compound `CCc1cc(N(C)Cc2sc(-c3ccc(C(F)(F)F)cc3)nc2C)ccc1OCC(=O)O` [Example 7.8, (2-Ethyl-4-{methyl-[4-methyl-2-(4-trifluoromethyl-phenyl)-thiazol-5-ylmethyl]-amino}-phenoxy)-acetic acid], the melting point is 142 to 143 °C (dec.). This compound came in with an IC50 at PPARγ of 2.21 µM. The IC50 on PPARα came to 0.308 µM. The IC50 on PPARδ amounted to 0.0101 µM.
As to `COc1cc(N(C)Cc2sc(-c3ccc(C(F)(F)F)cc3)nc2C)ccc1OCC(=O)O` [Example 8.7, (2-Methoxy-4-{methyl-[4-methyl-2-(4-trifluoromethyl-phenyl)-thiazol-5-ylmethyl]-amino}-phenoxy)-acetic acid], the melting point is 129 to 131 °C (dec.).
The compound `COCCCc1cc(N(C)Cc2sc(-c3ccc(C(F)(F)F)cc3)nc2C)ccc1OCC(=O)O` [Example 13.10, (2-(3-Methoxy-propyl)-4-{methyl-[4-methyl-2-(4-trifluoromethyl-phenyl)-thiazol-5-ylmethyl]-amino}-phenoxy)-acetic acid] displayed a melting point of 142 to 143 °C. Also, the IC50 on PPARγ was above 10 µM. For the same compound, the IC50 on PPARα is 3.96 µM. Also, on PPARδ, the IC50 turned out to be 0.034 µM.
As for `Cc1cc(N(C)Cc2oc(-c3ccc(C(F)(F)F)cc3)nc2C)ccc1OCC(=O)O` [Example 14, (2-Methyl-4-{methyl-[4-methyl-2-(4-trifluoromethyl-phenyl)-oxazol-5-ylmethyl]-amino}-phenoxy)-acetic acid], the melting point was 156 to 157 °C.
Take `CCN(Cc1sc(-c2ccc(C(F)(F)F)cc2)nc1C)c1cc(C)c(OCC(=O)O)c(C)c1` [Example 15.5, (4-{Ethyl-[4-methyl-2-(4-trifluoromethyl-phenyl)-thiazol-5-ylmethyl]-amino}-2,6-dimethyl-phenoxy)-acetic acid]: the melting point fell in the range of 161 to 162 °C.
For the compound `Cc1cc(N(C)Cc2oc(-c3ccc(C(F)(F)F)cc3)nc2C)cc(C)c1OCC(=O)O` [Example 16.4, (2,6-Dimethyl-4-{methyl-[4-methyl-2-(4-trifluoromethyl-phenyl)-oxazol-5-ylmethyl]-amino}-phenoxy)-acetic acid], the melting point lay in the range of 122 to 123 °C.
In the case of `Cc1cc(NCc2sc(-c3ccc(C(F)(F)F)cc3)nc2C)ccc1OCC(=O)O` [Example 18.3, (2-Methyl-4-{[4-methyl-2-(4-trifluoromethyl-phenyl)-thiazol-5-ylmethyl]-amino}-phenoxy)-acetic acid], the melting point is 201 to 203 °C (dec.).
Turning to `CCN(Cc1sc(-c2ccc(C(F)(F)F)cc2)nc1C)c1ccc(OCC(=O)O)c(C)c1` [Example 19.2, (4-{Ethyl-[4-methyl-2-(4-trifluoromethyl-phenyl)-thiazol-5-ylmethyl]-amino}-2-methyl-phenoxy)-acetic acid], the melting point is 147 to 154 °C (dec.).
For the compound `Cc1nc(-c2ccc(C(F)(F)F)cc2)sc1CN(C)c1ccc(OCC(=O)O)c(I)c1` [Example 20.8, (2-Iodo-4-{methyl-[4-methyl-2-(4-trifluoromethyl-phenyl)-thiazol-5-ylmethyl]-amino}-phenoxy)-acetic acid], the melting point was 172.5 to 173 °C.
